From patent publication US7632811B2, “Analogs of parathyroid hormone” (Societe de Conseils de Recherches et D'Applications …, priority 1995, dated 2009) come the findings set out here.

Each structure is given as a SMILES string. Non-standard residues stand in square brackets, D forms with d. Residues, ends and D or L forms follow the SMILES beside them. Aib = CC(C)(N)C(=O)O

For this test, the target named is T1, PTH receptor present on SaOS-2 (human osteosarcoma cells) (Homo sapiens, UniProt Q03431).
T1 construct: host or cells: SaOS-2 human osteosarcoma cells (intact, confluent monolayers)
T1 sequence (Q03431 27-593): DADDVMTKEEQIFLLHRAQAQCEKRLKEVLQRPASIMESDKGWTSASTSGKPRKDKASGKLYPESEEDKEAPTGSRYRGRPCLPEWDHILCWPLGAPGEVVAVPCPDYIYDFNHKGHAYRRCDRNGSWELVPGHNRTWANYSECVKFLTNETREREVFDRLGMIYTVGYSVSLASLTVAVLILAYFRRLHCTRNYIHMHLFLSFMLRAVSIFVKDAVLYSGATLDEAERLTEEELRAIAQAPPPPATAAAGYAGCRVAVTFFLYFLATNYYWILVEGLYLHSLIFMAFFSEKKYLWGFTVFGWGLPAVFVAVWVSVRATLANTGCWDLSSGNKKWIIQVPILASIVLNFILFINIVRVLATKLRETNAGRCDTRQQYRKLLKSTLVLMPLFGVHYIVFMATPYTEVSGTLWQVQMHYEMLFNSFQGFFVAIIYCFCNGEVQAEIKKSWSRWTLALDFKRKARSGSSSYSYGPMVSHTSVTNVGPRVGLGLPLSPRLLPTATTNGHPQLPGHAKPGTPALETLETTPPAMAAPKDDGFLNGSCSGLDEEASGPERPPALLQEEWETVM
Briefly: Binding to PTH receptor on SaOS-2 cells (competition with mono-125I-[Nle8,18,Tyr34(3-125I)]bPTH(1-34)NH2). The note with it: Table I, 2 hrs at room temperature, read-out: Kd (half maximal inhibition of binding of mono-125I-[Nle8,18, Tyr34(3-125I)]bPTH(1-34)NH2). As for the experimental part: A. Binding to PTH Receptor
The peptides of the invention were tested for their ability to bind to the PTH receptor present on SaOS-2 (human osteosarcoma cells). SaOS-2 cells (American Type Culture Collection, Rockville, Md.; ATCC #HTB 85) were maintained in RPMI 1640 medium (Sigma, St. Louis, Mo.) supplemented with 10% fetal bovine serum (FBS) and 2 mM glutamine at 37EC in a humidified atmosphere of 5% CO2 in air. The medium was changed every three or four days, and the cells were subcultured every week by trypsinization.
SaOS-2 cells were maintained for four days until they had reached confluence. The medium was replaced with 5% FBS in RPMI 1640 medium and incubated for 2 hrs at room temperature with 10×10^4 cpm mono-^125I-[Nle^8,18, Tyr^34(3-^125I)]bPTH(1-34)NH2 in the presence of a competing peptides of the invention at various concentrations between 10^−11 M to 10^−4 M. The cells were washed four times with ice-cold PBS and lysed with 0.1 M NaOH, and the radioactivity associated with the cells was counted in a scintillation counter. Synthesis of mono-^125I-[Nle^8,18, Tyr^34(3-^125I)]bPTH(1-34)NH2 was carried out as described in Goldman, M. E., et al., Endocrinol., 123:1468 (1988).
The binding assay was conducted with various peptides of the invention, and the Kd value (half maximal inhibition of binding of mono-^125I-[Nle^8,18, Tyr^34(3-^125I)]bPTH(1-34)NH2) for each peptide was calculated.

As usually defined, the Kd is the equilibrium constant for the complex coming apart. Consider `CC[C@H](C)[C@H](NC(=O)[C@H](CCC(=O)O)NC(=O)C(C)(C)NC(=O)[C@@H](NC(=O)[C@@H](N)CO)C(C)C)C(=O)N[C@@H](CCC(N)=O)C(=O)N[C@@H](CC(C)C)C(=O)N[C@@H](CCSC)C(=O)N[C@@H](Cc1c[nH]cn1)C(=O)N[C@@H](CC(N)=O)C(=O)N[C@@H](CC(C)C)C(=O)NCC(=O)N[C@@H](CCCCN)C(=O)N[C@@H](Cc1c[nH]cn1)C(=O)N[C@@H](CC(C)C)C(=O)N[C@@H](CC(N)=O)C(=O)N[C@@H](CO)C(=O)N[C@@H](CCSC)C(=O)N[C@@H](CCC(=O)O)C(=O)N[C@@H](CCCNC(=N)N)C(=O)N[C@H](C(=O)N[C@@H](CCC(=O)O)C(=O)N[C@@H](Cc1c[nH]c2ccccc12)C(=O)N[C@@H](CC(C)C)C(=O)N[C@@H](CCCNC(=N)N)C(=O)N[C@@H](CCCCN)C(=O)N[C@@H](CCCCN)C(=O)N[C@@H](CC(C)C)C(=O)N[C@@H](CCC(N)=O)C(=O)N[C@@H](CC(=O)O)C(=O)N[C@H](C(=O)N[C@@H](Cc1c[nH]cn1)C(=O)N[C@@H](CC(N)=O)C(=O)N[C@@H](Cc1ccccc1)C(N)=O)C(C)C)C(C)C` [[Aib^3]hPTH(1-34)NH2] (H-SV[Aib]EIQLMHNLGKHLNSMERVEWLRKKLQDVHNF-NH2), for which the Kd amounted to 4 nM.

Take `CC[C@H](C)[C@H](NC(=O)[C@H](CCC(=O)O)NC(=O)[C@H](CO)NC(=O)[C@@H](NC(=O)[C@@H](N)CO)C(C)C)C(=O)N[C@@H](CCC(N)=O)C(=O)N[C@@H](CC(C)C)C(=O)N[C@@H](CCSC)C(=O)N[C@@H](Cc1c[nH]cn1)C(=O)N[C@@H](CC(N)=O)C(=O)N[C@@H](CC(C)C)C(=O)NC(C)(C)C(=O)N[C@@H](CCCCN)C(=O)N[C@@H](Cc1c[nH]cn1)C(=O)N[C@@H](CC(C)C)C(=O)N[C@@H](CC(N)=O)C(=O)N[C@@H](CO)C(=O)N[C@@H](CCSC)C(=O)N[C@@H](CCC(=O)O)C(=O)N[C@@H](CCCNC(=N)N)C(=O)N[C@H](C(=O)N[C@@H](CCC(=O)O)C(=O)N[C@@H](Cc1c[nH]c2ccccc12)C(=O)N[C@@H](CC(C)C)C(=O)N[C@@H](CCCNC(=N)N)C(=O)N[C@@H](CCCCN)C(=O)N[C@@H](CCCCN)C(=O)N[C@@H](CC(C)C)C(=O)N[C@@H](CCC(N)=O)C(=O)N[C@@H](CC(=O)O)C(=O)N[C@H](C(=O)N[C@@H](Cc1c[nH]cn1)C(=O)N[C@@H](CC(N)=O)C(=O)N[C@@H](Cc1ccccc1)C(N)=O)C(C)C)C(C)C` [[Aib^12]hPTH(1-34)NH2] (H-SVSEIQLMHNL[Aib]KHLNSMERVEWLRKKLQDVHNF-NH2): the Kd turned out to be 5 nM.

In the case of `CC[C@H](C)[C@H](NC(=O)[C@H](CCC(=O)O)NC(=O)[C@H](CO)NC(=O)[C@@H](NC(=O)[C@@H](N)CO)C(C)C)C(=O)N[C@@H](CCC(N)=O)C(=O)N[C@@H](CC(C)C)C(=O)N[C@@H](CCSC)C(=O)N[C@@H](Cc1c[nH]cn1)C(=O)N[C@@H](CC(N)=O)C(=O)N[C@@H](CC(C)C)C(=O)NCC(=O)N[C@@H](CCCCN)C(=O)N[C@@H](Cc1c[nH]cn1)C(=O)N[C@@H](CC(C)C)C(=O)NC(C)(C)C(=O)N[C@@H](CO)C(=O)N[C@@H](CCSC)C(=O)NC(C)(C)C(=O)N[C@@H](CCCNC(=N)N)C(=O)N[C@H](C(=O)N[C@@H](CCC(=O)O)C(=O)N[C@@H](Cc1c[nH]c2ccccc12)C(=O)N[C@@H](CC(C)C)C(=O)N[C@@H](CCCNC(=N)N)C(=O)N[C@@H](CCCCN)C(=O)N[C@@H](CCCCN)C(=O)N[C@@H](CC(C)C)C(=O)N[C@@H](CCC(N)=O)C(=O)N[C@@H](CC(=O)O)C(=O)N[C@H](C(=O)N[C@@H](Cc1c[nH]cn1)C(=O)N[C@@H](CC(N)=O)C(=O)N[C@@H](Cc1ccccc1)C(N)=O)C(C)C)C(C)C` [[Aib^16,19]hPTH(1-34)NH2] (H-SVSEIQLMHNLGKHL[Aib]SM[Aib]RVEWLRKKLQDVHNF-NH2), the Kd amounted to 4 nM.

With `CC[C@H](C)[C@H](NC(=O)[C@H](CCC(=O)O)NC(=O)[C@H](CO)NC(=O)[C@@H](NC(=O)[C@@H](N)CO)C(C)C)C(=O)N[C@@H](CCC(N)=O)C(=O)N[C@@H](CC(C)C)C(=O)N[C@@H](CCSC)C(=O)N[C@@H](Cc1c[nH]cn1)C(=O)N[C@@H](CC(N)=O)C(=O)N[C@@H](CC(C)C)C(=O)NCC(=O)N[C@@H](CCCCN)C(=O)N[C@@H](Cc1c[nH]cn1)C(=O)N[C@@H](CC(C)C)C(=O)NC(C)(C)C(=O)N[C@@H](CO)C(=O)N[C@@H](CCSC)C(=O)N[C@@H](CCC(=O)O)C(=O)N[C@@H](CCCNC(=N)N)C(=O)N[C@H](C(=O)N[C@@H](CCC(=O)O)C(=O)N[C@@H](Cc1c[nH]c2ccccc12)C(=O)N[C@@H](CC(C)C)C(=O)N[C@@H](CCCNC(=N)N)C(=O)N[C@@H](CCCCN)C(=O)N[C@@H](CCCCN)C(=O)N[C@@H](CC(C)C)C(=O)N[C@@H](CCC(N)=O)C(=O)N[C@@H](CC(=O)O)C(=O)N[C@H](C(=O)N[C@@H](Cc1c[nH]cn1)C(=O)N[C@@H](CC(N)=O)C(=O)N[C@@H](Cc1ccccc1)C(N)=O)C(C)C)C(C)C` [[Aib^16]hPTH(1-34)NH2] (H-SVSEIQLMHNLGKHL[Aib]SMERVEWLRKKLQDVHNF-NH2), the Kd was determined as 4 nM.

As to `CC[C@H](C)[C@H](NC(=O)[C@H](CCC(=O)O)NC(=O)[C@H](CO)NC(=O)[C@@H](NC(=O)[C@@H](N)CO)C(C)C)C(=O)N[C@@H](CCC(N)=O)C(=O)N[C@@H](CC(C)C)C(=O)N[C@@H](CCSC)C(=O)N[C@@H](Cc1c[nH]cn1)C(=O)N[C@@H](CC(N)=O)C(=O)N[C@@H](CC(C)C)C(=O)NCC(=O)N[C@@H](CCCCN)C(=O)N[C@@H](Cc1c[nH]cn1)C(=O)N[C@@H](CC(C)C)C(=O)N[C@@H](CC(N)=O)C(=O)N[C@@H](CO)C(=O)N[C@@H](CCSC)C(=O)NC(C)(C)C(=O)N[C@@H](CCCNC(=N)N)C(=O)N[C@H](C(=O)N[C@@H](CCC(=O)O)C(=O)N[C@@H](Cc1c[nH]c2ccccc12)C(=O)N[C@@H](CC(C)C)C(=O)N[C@@H](CCCNC(=N)N)C(=O)N[C@@H](CCCCN)C(=O)N[C@@H](CCCCN)C(=O)N[C@@H](CC(C)C)C(=O)N[C@@H](CCC(N)=O)C(=O)N[C@@H](CC(=O)O)C(=O)N[C@H](C(=O)N[C@@H](Cc1c[nH]cn1)C(=O)N[C@@H](CC(N)=O)C(=O)N[C@@H](Cc1ccccc1)C(N)=O)C(C)C)C(C)C` [[Aib^19]hPTH(1-34)NH2] (H-SVSEIQLMHNLGKHLNSM[Aib]RVEWLRKKLQDVHNF-NH2), the Kd amounted to 5 nM.

For `CC[C@H](C)[C@H](NC(=O)[C@H](CCC(=O)O)NC(=O)[C@H](CO)NC(=O)[C@@H](NC(=O)[C@@H](N)CO)C(C)C)C(=O)N[C@@H](CCC(N)=O)C(=O)N[C@@H](CC(C)C)C(=O)N[C@@H](CCSC)C(=O)N[C@@H](Cc1c[nH]cn1)C(=O)N[C@@H](CC(N)=O)C(=O)N[C@@H](CC(C)C)C(=O)NCC(=O)N[C@@H](CCCCN)C(=O)N[C@@H](Cc1c[nH]cn1)C(=O)N[C@@H](CC(C)C)C(=O)N[C@@H](CC(N)=O)C(=O)N[C@@H](CO)C(=O)N[C@@H](CCSC)C(=O)N[C@@H](CCC(=O)O)C(=O)N[C@@H](CCCNC(=N)N)C(=O)N[C@H](C(=O)N[C@@H](CCC(=O)O)C(=O)N[C@@H](Cc1c[nH]c2ccccc12)C(=O)N[C@@H](CC(C)C)C(=O)N[C@@H](CCCNC(=N)N)C(=O)N[C@@H](CCCCN)C(=O)N[C@@H](CCCCN)C(=O)N[C@@H](CC(C)C)C(=O)N[C@@H](CCC(N)=O)C(=O)N[C@@H](CC(=O)O)C(=O)N[C@H](C(=O)N[C@@H](Cc1c[nH]cn1)C(=O)N[C@@H](CC(N)=O)C(=O)NC(C)(C)C(N)=O)C(C)C)C(C)C` [[Aib^34]hPTH(1-34)NH2], the Kd came to 7 nM.
